The values below are quoted from earlier work in PMC4753123 (Archives of biochemistry and biophysics, 2015).

In the series the target is T1, Mtm1p (Saccharomyces cerevisiae, UniProt P53320).
T1 sequence (P53320 1-366): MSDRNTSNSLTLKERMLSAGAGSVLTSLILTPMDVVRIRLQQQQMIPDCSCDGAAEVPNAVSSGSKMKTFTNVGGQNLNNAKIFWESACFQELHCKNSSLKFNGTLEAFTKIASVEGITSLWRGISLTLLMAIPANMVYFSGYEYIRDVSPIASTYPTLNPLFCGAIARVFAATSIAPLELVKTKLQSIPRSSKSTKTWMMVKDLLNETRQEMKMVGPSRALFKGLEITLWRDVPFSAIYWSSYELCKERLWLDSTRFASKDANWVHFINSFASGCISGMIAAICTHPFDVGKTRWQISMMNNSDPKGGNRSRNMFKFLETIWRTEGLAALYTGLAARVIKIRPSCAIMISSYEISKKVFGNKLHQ
As to the kind of experiment: fluorescence titration. The conditions noted are these: purified recombinant protein. The format is binding.

In the case of `Cc1ncc(COP(=O)(O)O)c(C=O)c1O` [PLP], the Kd (commonly the constant that tells how readily two partners part at equilibrium) is 600 nM.
